Drawing on ChEMBL document CHEMBL4038297, “Fluorinated tranylcypromine analogues as inhibitors of lysine-specific demethylase 1 (LSD1, KDM1A)” (Bioorg Med Chem Lett, 2017), this text covers IC50 for 17 compounds.

Test [1] concerns the target Lysine-specific histone demethylase 1A (Homo sapiens, UniProt O60341). Briefly: Inhibition of recombinant human His-tagged LSD1 expressed in Escherichia coli BL21 (DE3) using H3K4me2 peptide as substrate preincubated for 10 mins followed by substrate addition measured after 20 mins by Amplex red dye based fluorescence assay.
A further test relates to MV4-11. Briefly: Antiproliferative activity against human MV411 cells after 72 hrs by CellTitre-Glo assay. The following applies: MV4-11, 72 h.
For the next test, the system named is THP-1. Briefly: Antiproliferative activity against human THP1 cells after 72 hrs by CellTitre-Glo assay. The conditions noted are these: THP-1, 72 h.

Where only a bound is given, the exact number is not on record here.

One may read the IC50 as the concentration that inhibits the measured activity by half. Regarding `N[C@H]1C[C@@]1(F)c1ccc(F)cc1`, the IC50 in test [1] is over 25 µM.
With `Cc1ccc([C@]2(F)C[C@@H]2N)cc1`, in test [1], the IC50 was over 25 µM.
Take `COc1ccc([C@]2(F)C[C@@H]2N)cc1`: the IC50 in test [1] is over 25 µM.
In the case of `N[C@H]1C[C@]1(F)c1ccc(F)cc1`, the IC50 in test [1] is over 25 µM.
Take `N[C@H]1C[C@]1(F)c1ccccc1`: the IC50 in test [1] is over 25 µM.
Turning to `COc1ccc([C@@]2(F)C[C@@H]2N)cc1`, the IC50 in test [1] is over 25 µM.
As to `Cc1ccc([C@@]2(F)C[C@@H]2N)cc1`, the half-maximal inhibitory concentration (IC50) in test [1] was over 25 µM.
As for `N[C@H]1C[C@@]1(F)c1ccccc1`, the IC50 in test [1] is over 25 µM.
With `N[C@@H]1C[C@H]1c1ccccc1.N[C@H]1C[C@@H]1c1ccccc1` (racemic) [TRANYLCYPROMINE], the half-maximal inhibitory concentration (IC50) in the test with MV4-11 was 630 µM; in the test with THP-1, 810 µM.
Consider `N[C@H]1C[C@@]1(F)c1ccc([N+](=O)[O-])cc1` (relative stereo), for which, in test [1], the IC50 is over 50 µM.
Regarding `CCOc1ccc([C@@]2(F)C[C@@H]2N)cc1` (relative stereo), in test [1], the IC50 is over 50 µM.
As to `N[C@H]1C[C@]1(F)c1cccc(F)c1` (relative stereo), the IC50 in the test on MV4-11 is 4.9 µM; with THP-1, 1.6 µM.
Turning to `N[C@H]1C[C@]1(F)c1ccc([N+](=O)[O-])cc1` (relative stereo), in test [1], the IC50 was over 50 µM.
Take `N[C@H]1C[C@@]1(F)c1cccc(F)c1` (relative stereo): the IC50 is 8.2 µM in the test on MV4-11 and 7 µM with THP-1.
For `COc1cccc([C@@]2(F)C[C@@H]2N)c1` (relative stereo), in that order: 1.9 µM and 8.5 µM.
In the case of `CCOc1ccc([C@]2(F)C[C@@H]2N)cc1` (relative stereo), the half-inhibitory concentration (IC50) in test [1] is over 50 µM.
For the compound `N[C@H]1C[C@]1(F)c1cccc([N+](=O)[O-])c1` (relative stereo), the IC50 in the test with MV4-11 and with THP-1 was over 30 µM in each case.
